Assay results reported in US20230075856A1, “CYCLIC SULFAMIDE COMPOUNDS FOR TREATMENT OF HBV” (Assembly Biosciences, Inc., priority 2018, published 2023).

system: HBV viral load production from HepAD38 cells; experiment: Viral production from HepAD38 cells: viral load in supernatant by qPCR of the HBV core sequence; format: cell-based; conditions: 5 days incubation, qPCR of supernatant HBV DNA vs DMSO control, read-out: viral load lowering EC50 (Activity)
Method in brief: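 Viral load was measured by qPCR of the HBV core region in supernatant, quantified against DNA standards and compared with DMSO wells. Cells (50,000/well, tetracycline withdrawn, 2% FBS) received compound from 10 μM final for 5 days; EC50 from four-parameter nonlinear regression.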

SMILES	EC50 [µM]
Cc1cccc(CNC(=O)C2CC(C(=O)Nc3ccc(F)c(Cl)c3)N(C)S(=O)(=O)N2)n1 (single isomer, unassigned; isomer-b) [Compound 716-ISOMER-B, N3-(3-chloro-4-fluoro-phenyl)-2-methyl-N5-[(6-methyl-2-pyridyl)methyl]-1,1-dioxo-1,2,6-thiadiazinane-3,5-dicarboxamde]	0.1 to 10
COC(=O)N1CCC(NC(=O)C2CC(C(=O)Nc3ccc(F)c(Cl)c3)N(CC(F)(F)F)S(=O)(=O)N2)CC1 (single isomer, unassigned; isomer-b) [Compound 893-ISOMER-B, methyl 4-[[5-[(3-chloro-4-fluroo-phenyl)carbamoyl]-1,1-dioxo-6-(2,2,2-trifluoroethyl)-1,2,6-thiadiazinane-3-carbonyl]amino]piperidine-1-carboxylate]	0.1 to 10
CN1C(C(=O)Nc2ccc(F)c(Cl)c2)CC(C(=O)NCc2cnc(-c3cccnc3)s2)NS1(=O)=O (single isomer, unassigned; isomer-b) [Compound 911-ISOMER-B, N3-(3-chloro-4-fluoro-phenyl)-2-methyl-1,1-dioxo-N5-[[2-(3-pyridyl)thiazol-5-yl]methyl]-1,2,6-thiadiazinane-3,5-dicarboxmaide]	< 0.05
CN1C(C(=O)Nc2ccc(F)c(Cl)c2)CC(C(=O)NCc2cnc(-c3cccc(Cl)c3)s2)NS1(=O)=O (single isomer, unassigned; isomer-b) [Compound 913-ISOMER-B, N3-(3-chloro-4-fluoro-phenyl)-N5-[[2-(3-chlorophenyl)thiazol-5-yl]methyl]-2-methyl-1,1-dioxo-1,2,-thiadiazinane-3,5-dicarboxamide]	< 0.05
CN1C(C(=O)Nc2ccc(F)c(Cl)c2)CC(C(=O)NC2CCN(c3cc(CN4CCCCC4)ccn3)CC2)NS1(=O)=O (single isomer, unassigned; isomer-b) [Compound 975-ISOMER-B, N3-(3-chloro-4-fluroo-phenyl)-2-methyl-1,1-dioxo-N5-[1-[4-(1-piperidylmethyl)-2-pyridyl]-4-piperidyl]-1,2,6-thiadiazinane-3,5-dicarboxamide]	0.1 to 10
Cc1nc(-c2ccccc2F)sc1[C@@H](NC(=O)C1CC(C(=O)Nc2ccc(F)c(Cl)c2)N(C)S(=O)(=O)N1)c1ccccc1 (single isomer, unassigned; isomer-d) [1101-ISOMER-D]	0.1 to 10
CN1C(C(=O)Nc2ccc(F)c(Cl)c2)CC(C(=O)NC2CCCc3nc(-c4ccc(OCCN5CCCCC5)cc4)sc32)NS1(=O)=O (single isomer, unassigned; isomer-d) [Compound 948-ISOMER-D]	< 0.05

same assay, conditions: Hepatitis B virus, HePAD38, 120 h, 5 days incubation, qPCR of supernatant HBV DNA vs DMSO control, read-out: viral load lowering EC50 (Activity)

SMILES	EC50 [µM]
CN1C(C(=O)Nc2ccc(F)c(Cl)c2)CC(C(=O)NC2CC2c2ccccc2)NS1(=O)=O (stereo not shown) [Compound 476]	0.05 to 0.1
COC(=O)N1CCC(NC(=O)C2CC(C(=O)Nc3ccc(F)c(Cl)c3)N(C)S(=O)(=O)N2)CC1 (stereo not shown) [Compound 477]	< 0.05
CN1C(C(=O)Nc2ccc(F)c(Cl)c2)CC(C(=O)Nc2cnn(C)c2)NS1(=O)=O (stereo not shown) [Compound 478]	0.1 to 10
CN1C(C(=O)Nc2ccc(F)c(Cl)c2)CC(C(=O)NCc2ccc(C(F)(F)F)cc2)NS1(=O)=O (stereo not shown) [Compound 481]	0.05 to 0.1
Cc1cc(CNC(=O)C2CC(C(=O)Nc3ccc(F)c(Cl)c3)N(C)S(=O)(=O)N2)n(C)n1 (stereo not shown) [Compound 482]	< 0.05
CN1C(C(=O)Nc2ccc(F)c(Cl)c2)CC(C(=O)Nc2cccc3cnccc23)NS1(=O)=O (stereo not shown) [Compound 485]	< 0.05
Cc1cc(CNC(=O)C2CC(C(=O)Nc3ccc(F)c(Cl)c3)N(C)S(=O)(=O)N2)on1 (stereo not shown) [Compound 489]	0.05 to 0.1
C[C@H](NC(=O)C1CC(C(=O)Nc2ccc(F)c(Cl)c2)N(C)S(=O)(=O)N1)c1ccc(F)cc1 (stereo partly shown) [Compound 493-S]	< 0.05
CC(NC(=O)C1CC(C(=O)Nc2ccc(F)c(Cl)c2)N(C)S(=O)(=O)N1)c1ccc(F)cc1 (stereo not shown) [Compound 493]	< 0.05
CN1C(C(=O)Nc2ccc(F)c(Cl)c2)CC(C(=O)Nc2cn(C)cn2)NS1(=O)=O (stereo not shown) [Compound 494]	0.05 to 0.1
Cc1ncc(CNC(=O)C2CC(C(=O)Nc3ccc(F)c(Cl)c3)N(C)S(=O)(=O)N2)s1 (stereo not shown) [Compound 495]	< 0.05
CN1C(C(=O)Nc2ccc(F)c(Cl)c2)CC(C(=O)NCc2cnc(C(F)(F)F)s2)NS1(=O)=O (stereo not shown) [Compound 498]	0.1 to 10
CN1C(C(=O)Nc2ccc(F)c(Cl)c2)CC(C(=O)NCc2ccc(S(N)(=O)=O)s2)NS1(=O)=O (stereo not shown) [Compound 682]	0.1 to 10
CN1C(C(=O)Nc2ccc(F)c(Cl)c2)CC(C(=O)NCc2nccs2)NS1(=O)=O (stereo not shown) [Compound 684]	0.1 to 10
Cc1noc(CNC(=O)C2CC(C(=O)Nc3ccc(F)c(Cl)c3)N(C)S(=O)(=O)N2)n1 (stereo not shown) [Compound 685]	0.1 to 10
Cc1csc(CNC(=O)C2CC(C(=O)Nc3ccc(F)c(Cl)c3)N(C)S(=O)(=O)N2)n1 (stereo not shown) [Compound 686]	0.05 to 0.1
Cc1cnc(CNC(=O)C2CC(C(=O)Nc3ccc(F)c(Cl)c3)N(C)S(=O)(=O)N2)s1 (stereo not shown) [Compound 687]	< 0.05
CN1C(C(=O)Nc2ccc(F)c(Cl)c2)CC(C(=O)NCc2nc3ccccc3s2)NS1(=O)=O (stereo not shown) [Compound 689]	< 0.05
CN1C(C(=O)Nc2ccc(F)c(Cl)c2)CC(C(=O)NCc2cnc(-c3ccccc3)s2)NS1(=O)=O (stereo not shown) [Compound 691]	< 0.05
CN1C(C(=O)Nc2ccc(F)c(Cl)c2)CC(C(=O)NCc2cnccn2)NS1(=O)=O (stereo not shown) [Compound 704]	0.1 to 10
CN1C(C(=O)Nc2ccc(F)c(Cl)c2)CC(C(=O)NC2CCOC2)NS1(=O)=O (stereo not shown) [Compound 706]	0.1 to 10
CN1C(C(=O)Nc2ccc(F)c(Cl)c2)CC(C(=O)Nc2cccnc2)NS1(=O)=O (stereo not shown) [Compound 708]	0.1 to 10
CN1C(C(=O)Nc2ccc(F)c(Cl)c2)CC(C(=O)NC2CCN(S(C)(=O)=O)CC2)NS1(=O)=O (stereo not shown) [Compound 710]	0.1 to 10
CN1C(C(=O)Nc2ccc(F)c(Cl)c2)CC(C(=O)Nc2ccc(-c3ccccc3)cc2)NS1(=O)=O (stereo not shown) [Compound 711]	0.1 to 10
CN1C(C(=O)Nc2ccc(F)c(Cl)c2)CC(C(=O)NCc2ccncc2)NS1(=O)=O (stereo not shown) [Compound 715]	0.1 to 10
Cc1cccc(CNC(=O)C2CC(C(=O)Nc3ccc(F)c(Cl)c3)N(C)S(=O)(=O)N2)n1 (stereo not shown) [Compound 716]	< 0.05

SMILES	EC50 [µM]
COc1ccc(CNC(=O)C2CC(C(=O)Nc3ccc(F)c(Cl)c3)N(C)S(=O)(=O)N2)cc1 (stereo not shown) [Compound 717, N3-(3-chloro-4-fluoro-phenyl)-N5-[(4-methoxyphenyl)methyl]-2-methyl-1,1-dioxo-1,2,6-thiadiazinane-3,5-dicarboxamide]	< 0.05
CN1C(C(=O)Nc2ccc(F)c(Cl)c2)CC(C(=O)NCc2ccccc2)NS1(=O)=O (stereo not shown) [Compound 718]	< 0.05
C[C@@H](NC(=O)C1CC(C(=O)Nc2ccc(F)c(Cl)c2)N(C)S(=O)(=O)N1)c1ccccc1 (stereo partly shown) [Compound 719]	< 0.05
COc1cccc(CNC(=O)C2CC(C(=O)Nc3ccc(F)c(Cl)c3)N(C)S(=O)(=O)N2)c1 (stereo not shown) [Compound 721]	< 0.05
CN1C(C(=O)Nc2ccc(F)c(Cl)c2)CC(C(=O)NCc2cccc(C(F)(F)F)c2)NS1(=O)=O (stereo not shown) [Compound 724]	0.05 to 0.1
CN1C(C(=O)Nc2ccc(F)c(Cl)c2)CC(C(=O)Nc2ccc3cccnc3c2)NS1(=O)=O (stereo not shown) [Compound 725]	0.05 to 0.1
CN1C(C(=O)Nc2ccc(F)c(Cl)c2)CC(C(=O)NCCCc2ccccc2)NS1(=O)=O (stereo not shown) [Compound 726]	0.05 to 0.1
CN1C(C(=O)Nc2ccc(F)c(Cl)c2)CC(C(=O)NC2CCCCC2)NS1(=O)=O (stereo not shown) [Compound 728]	0.1 to 10
CN1C(C(=O)Nc2ccc(F)c(Cl)c2)CC(C(=O)NCc2ccc(Cl)cc2)NS1(=O)=O (stereo not shown) [Compound 729]	< 0.05
CN1C(C(=O)Nc2ccc(F)c(Cl)c2)CC(C(=O)NCc2cccc(Cl)c2)NS1(=O)=O (stereo not shown) [Compound 730]	< 0.05
CN1C(C(=O)Nc2ccc(F)c(Cl)c2)CC(C(=O)N[C@H]2CCCc3ccccc32)NS1(=O)=O (stereo partly shown) [Compound 731]	0.1 to 10
CN1C(C(=O)Nc2ccc(F)c(Cl)c2)CC(C(=O)NCCc2ccccc2)NS1(=O)=O (stereo not shown) [Compound 732]	0.1 to 10
CN1C(C(=O)Nc2ccc(F)c(Cl)c2)CC(C(=O)Nc2ccc3c(c2)OCCO3)NS1(=O)=O (stereo not shown) [Compound 734]	0.05 to 0.1
CC(NC(=O)C1CC(C(=O)Nc2ccc(F)c(Cl)c2)N(C)S(=O)(=O)N1)c1ccccn1 (stereo not shown) [Compound 736]	0.05 to 0.1
CN1C(C(=O)Nc2ccc(F)c(Cl)c2)CC(C(=O)NC2CCOCC2)NS1(=O)=O (stereo not shown) [Compound 738]	0.05 to 0.1
CN1C(C(=O)Nc2ccc(F)c(Cl)c2)CC(C(=O)NCc2ccccn2)NS1(=O)=O (stereo not shown) [Compound 739]	0.05 to 0.1
Cc1c(CNC(=O)C2CC(C(=O)Nc3ccc(F)c(Cl)c3)N(C)S(=O)(=O)N2)cnn1C (stereo not shown) [Compound 740]	< 0.05
C[C@@H](NC(=O)C1CC(C(=O)Nc2ccc(F)c(Cl)c2)N(C)S(=O)(=O)N1)C1CCCCC1 (stereo partly shown) [Compound 741]	0.05 to 0.1
CCc1nc(CNC(=O)C2CC(C(=O)Nc3ccc(F)c(Cl)c3)N(C)S(=O)(=O)N2)cs1 (stereo not shown) [Compound 742]	0.05 to 0.1
CCn1nccc1CNC(=O)C1CC(C(=O)Nc2ccc(F)c(Cl)c2)N(C)S(=O)(=O)N1 (stereo not shown) [Compound 744]	0.05 to 0.1
CCn1ccc(CNC(=O)C2CC(C(=O)Nc3ccc(F)c(Cl)c3)N(C)S(=O)(=O)N2)n1 (stereo not shown) [Compound 745]	0.05 to 0.1
C[C@H](NC(=O)C1CC(C(=O)Nc2ccc(F)c(Cl)c2)N(C)S(=O)(=O)N1)c1ccccc1 (stereo partly shown) [Compound 755]	0.1 to 10
CC(C)OC(=O)N1CCC(NC(=O)C2CC(C(=O)Nc3ccc(F)c(Cl)c3)N(C)S(=O)(=O)N2)CC1 (stereo not shown) [Compound 766]	< 0.05
CN1C(C(=O)Nc2ccc(F)c(Cl)c2)CC(C(=O)NC2CCN(C(=O)OC(C)(C)C)CC2)NS1(=O)=O (stereo not shown) [Compound 767]	< 0.05
CN1C(C(=O)Nc2ccc(F)c(Cl)c2)CC(C(=O)NC2CCN(c3ccccn3)CC2)NS1(=O)=O (stereo not shown) [Compound 769]	< 0.05
